Target: T1, SGK3 (Homo sapiens, UniProt Q96BR1)
T1 sequence (Q96BR1 1-496): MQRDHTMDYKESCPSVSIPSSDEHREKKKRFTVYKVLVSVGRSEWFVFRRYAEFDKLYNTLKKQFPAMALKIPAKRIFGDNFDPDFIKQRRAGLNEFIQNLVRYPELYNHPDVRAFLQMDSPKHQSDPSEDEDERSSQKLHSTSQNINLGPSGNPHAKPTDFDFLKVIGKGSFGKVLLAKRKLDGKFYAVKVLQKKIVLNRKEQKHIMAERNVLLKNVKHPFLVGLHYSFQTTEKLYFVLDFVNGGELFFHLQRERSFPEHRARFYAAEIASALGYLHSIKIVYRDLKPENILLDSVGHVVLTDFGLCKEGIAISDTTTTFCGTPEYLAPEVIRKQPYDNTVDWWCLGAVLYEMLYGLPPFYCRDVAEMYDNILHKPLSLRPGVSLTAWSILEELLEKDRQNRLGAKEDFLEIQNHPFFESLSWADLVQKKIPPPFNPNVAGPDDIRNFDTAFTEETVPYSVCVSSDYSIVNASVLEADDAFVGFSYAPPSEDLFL
Experiment: SGK3 degradation in HEK293 cells, immunoblot
Assay type: cell-based
Set-up: reduced endogenous SGK isoform or S6K1 expression when administered to HEK293 cells for 48 h; endogenous in cells; host or cells: HEK293; Dmax: dose or concentration left out as unconfirmed
Conditions: for remaining activity at 0.001 µM / remaining activity at 0.01 µM / remaining activity at 0.1 µM / remaining activity at 1 µM / remaining activity at 10 µM: Figure 2; for degradation of SGK3: HEK293, 8 h, cisSGK3-PROTAC1 up to 3 μM, SGK3-PROTAC1 0.1 μM
Procedure: Figure 1 Design and cellular activity of first generation SGK3 PROTACs. (A) Structure of compound 14H, previously published by Sanofi as an inhibitor of SGK3. (B) Starting material for SGK PROTACs. […] (C) Structures of first generation SGK PROTACs. SGK and E3 ligase targeting motifs were joined by a 3xPEG linker to produce the PROTACs. (D) HEK293 cells were treated for 48 h with increasing concentrations of each PROTAC compound from 0.1 nM to 10 μM. Cell lysates were subjected to immunoblot analysis with the indicated antibodies, and SGK3 protein levels were quantified in Image Studio Lite software (Licor).
Figure 2 Design and cellular evaluation of second and third generation SGK PROTACs. (A) Chemical structure of compounds DAT5–12, expanding upon DAT1. (B) Chemical structure of cisSGK3-PROTAC1. (C) HEK293 cells were treated for 48 h with increasing concentrations of each PROTAC compound from 1 nM to 10 μM. Cell lysates were subjected to immunoblot analysis with the indicated antibodies, and SGK3 protein levels quantified in Image Studio Lite software. (D) HEK293 cells were treated for 48 h with increasing concentrations of each PROTAC compound from 1 nM to 10 μM. Cell lysates were subjected to immunoblot analysis with the indicated antibodies, and SGK3 and S6K1 protein levels were quantified in Image Studio Lite software. TEXT PRINTED IN THE PICTURE: (C) DAT1: % SGK3: 100 (48h Treatment (μM): 0); % SGK3: 94 (48h Treatment (μM): 0.001); % SGK3: 82 (48h Treatment (μM): 0.01); % SGK3: 70 (48h Treatment (μM): 0.1); % SGK3: 52 (48h Treatment (μM): 1); % SGK3: 31 (48h Treatment (μM): 10) | (C) DAT5: % SGK3: 100 (48h Treatment (μM): 0); % SGK3: 104 (48h Treatment (μM): 0.001); % SGK3: 82 (48h Treatment (μM): 0.01); % SGK3: 92 (48h Treatment (μM): 0.1); % SGK3: 73 (48h Treatment (μM): 1); % SGK3: 36 (48h Treatment (μM): 10) | (C) DAT6: % SGK3: 100 (48h Treatment (μM): 0); % SGK3: 105 (48h Treatment (μM): 0.001); % SGK3: 90 (48h Treatment (μM): 0.01); % SGK3: 71 (48h Treatment (μM): 0.1); % SGK3: 44 (48h Treatment (μM): 1); % SGK3: 20 (48h Treatment (μM): 10) | (C) DAT7: % SGK3: 100 (48h Treatment (μM): 0); % SGK3: 77 (48h Treatment (μM): 0.001); % SGK3: 80 (48h Treatment (μM): 0.01); % SGK3: 95 (48h Treatment (μM): 0.1); % SGK3: 37 (48h Treatment (μM): 1); % SGK3: 29 (48h Treatment (μM): 10) | (D) DAT8: % SGK3: 100 (48h Treatment (μM): 0); % SGK3: 97 (48h Treatment (μM): 0.001); % SGK3: 107 (48h Treatment (μM): 0.01); % SGK3: 34 (48h Treatment (μM): 0.1); % SGK3: 24 (48h Treatment (μM): 1); % SGK3: 19 (48h Treatment (μM): 10) | (D) DAT9: % SGK3: 100 (48h Treatment (μM): 0); % SGK3: 105 (48h Treatment (μM): 0.001); % SGK3: 71 (48h Treatment (μM): 0.01); % SGK3: 40 (48h Treatment (μM): 0.1); % SGK3: 11 (48h Treatment (μM): 1); % SGK3: 12 (48h Treatment (μM): 10) | (D) DAT10: % SGK3: 100 (48h Treatment (μM): 0); % SGK3: 100 (48h Treatment (μM): 0.001); % SGK3: 76 (48h Treatment (μM): 0.01); % SGK3: 54 (48h Treatment (μM): 0.1); % SGK3: 11 (48h Treatment (μM): 1); % SGK3: 9 (48h Treatment (μM): 10) | (D) DAT11: % SGK3: 100 (48h Treatment (μM): 0); % SGK3: 96 (48h Treatment (μM): 0.001); % SGK3: 97 (48h Treatment (μM): 0.01); % SGK3: 41 (48h Treatment (μM): 0.1); % SGK3: 32 (48h Treatment (μM): 1); % SGK3: 29 (48h Treatment (μM): 10) | (D) DAT12: % SGK3: 100 (48h Treatment (μM): 0); % SGK3: 106 (48h Treatment (μM): 0.001); % SGK3: 84 (48h Treatment (μM): 0.01); % SGK3: 79 (48h Treatment (μM): 0.1); % SGK3: 32 (48h Treatment (μM): 1); % SGK3: 29 (48h Treatment (μM): 10) DOUBTS OF THE COPYIST ABOUT THIS PICTURE: All % SGK3 values are quantification numbers printed under immunoblot lanes; each was assigned to a concentration by lane position / DAT9 and DAT10, % SGK3: the first numbers are printed run together ('100105', '100100') and were split as 100 | 105 and 100 | 100
Figure 3 Characterization of cellular activities of SGK3-PROTAC1 and cisSGK3-PROTAC1. […]

[1] = HEK293, washout after 24 h of treatment

| SMILES | SGK3 degradation efficiency (HEK293, 48 h) | remaining activity at 0.001 µM (HEK293, 48 h) | remaining activity at 0.01 µM (HEK293, 48 h) | remaining activity at 0.1 µM (HEK293, 48 h, 0.1 μM) | remaining activity at 1 µM (HEK293, 48 h, 1 μM) | remaining activity at 10 µM (HEK293, 48 h, 10 μM) | time of maximal reduction of SGK3 expression (HEK293, 1 μM) | concentration that maximally reduced SGK3 expression (HEK293, 8 h time point, dose response) | reduction of SGK3 expression (HEK293, 48 h, 1 μM) | reduction of SGK3 expression (HEK293, 48 h, 10 μM) | degradation of endogenous SGK3 (HEK293, 0.3 μM, within 2 h) | degradation of SGK3 | reduction of SGK3 levels (HEK293, 48 h, 0.1 μM) | time to increased SGK3 expression after washout [1] | time to return of SGK3 protein to normal levels after washout [1] | Dmax (HEK293, within 8 h, read-out: maximal degradation of SGK3) | DC50 (SGK3 degradation) |
| --- | --- | --- | --- | --- | --- | --- | --- | --- | --- | --- | --- | --- | --- | --- | --- | --- | --- |
| Cc1ccc(F)c(S(=O)(=O)Nc2ccc(-c3nc(OC[C@H]4CN(CCOCCOCCOCCOCC(=O)N[C@H](C(=O)N5C[C@H](O)C[C@H]5C(=O)NCc5ccc(-c6scnc6C)cc5)C(C)(C)C)CCO4)c4cn[nH]c4n3)cc2)c1 [DAT6] | ++ (“++” = >50% degradation at 1 μM) | 105% | 90% | 71% | 44% | 20% |  |  |  |  |  |  |  |  |  |  |  |
| Cc1ccc(F)c(S(=O)(=O)Nc2ccc(-c3nc(OC[C@H]4CN(CCOCCOCCOCC(=O)N[C@H](C(=O)N5C[C@H](O)C[C@H]5C(=O)NCc5ccc(-c6scnc6C)cc5)C(C)(C)C)CCO4)c4cn[nH]c4n3)cc2)c1 [DAT1] | + (“+” = >50% degradation at 10 μM) | 94% | 82% | 70% | 52% | 31% | ≤ 16 h | 2 µM | 60% | 75% |  |  |  |  |  |  |  |
| Cc1ccc(F)c(S(=O)(=O)Nc2ccc(-c3nc(OC[C@H]4CN(CCCCCCOCCOCCOCC(=O)N[C@H](C(=O)N5C[C@H](O)C[C@H]5C(=O)NCc5ccc(-c6scnc6C)cc5)C(C)(C)C)CCO4)c4cn[nH]c4n3)cc2)c1 [SGK3-PROTAC1] | ++++ (“++++” = >60% degradation at 0.1 μM) | 97% | 107% | 34% | 24% | 19% |  |  |  |  | 50% | markedly reduced SGK3 expression | 65% | 1 h | 10 h | 80% | < 0.1 µM |
| Cc1ccc(F)c(S(=O)(=O)Nc2ccc(-c3nc(OC[C@H]4CN(CCOCCOCC(=O)N[C@H](C(=O)N5C[C@H](O)C[C@H]5C(=O)NCc5ccc(-c6scnc6C)cc5)C(C)(C)C)CCO4)c4cn[nH]c4n3)cc2)c1 [DAT5] | + (“+” = >50% degradation at 10 μM) | 104% | 82% | 92% | 73% | 36% |  |  |  |  |  |  |  |  |  |  |  |
| COc1ccc(Cl)c(S(=O)(=O)Nc2ccc(-c3nc(OC[C@H]4CN(CCCCCCOCCOCCOCCOCC(=O)N[C@H](C(=O)N5C[C@H](O)C[C@H]5C(=O)NCc5ccc(-c6scnc6C)cc5)C(C)(C)C)CCO4)c4c(C)n[nH]c4n3)cc2)c1 [DAT11] | +++ (“+++” = >50% degradation at 0.1 μM) | 96% | 97% | 41% | 32% | 29% |  |  |  |  |  |  |  |  |  |  |  |
| Cc1ccc(F)c(S(=O)(=O)Nc2ccc(-c3nc(OC[C@H]4CN(CCOCCOCCOCCOCCOCC(=O)N[C@H](C(=O)N5C[C@H](O)C[C@H]5C(=O)NCc5ccc(-c6scnc6C)cc5)C(C)(C)C)CCO4)c4cn[nH]c4n3)cc2)c1 [DAT7] | ++ (“++” = >50% degradation at 1 μM) | 77% | 80% | 95% | 37% | 29% |  |  |  |  |  |  |  |  |  |  |  |
| Cc1ccc(F)c(S(=O)(=O)Nc2ccc(-c3nc(OC[C@H]4CN(CCCCCCOCCCCCCOCC(=O)N[C@H](C(=O)N5C[C@H](O)C[C@H]5C(=O)NCc5ccc(-c6scnc6C)cc5)C(C)(C)C)CCO4)c4cn[nH]c4n3)cc2)c1 [DAT10] | ++ (“++” = >50% degradation at 1 μM) | 100% | 76% | 54% | 11% | 9% |  |  |  |  |  |  |  |  |  |  |  |
| Cc1ccc(F)c(S(=O)(=O)Nc2ccc(-c3nc(OC[C@H]4CN(CCCCCCOCCOCCOCC(=O)N[C@H](C(=O)N5C[C@@H](O)C[C@H]5C(=O)NCc5ccc(-c6scnc6C)cc5)C(C)(C)C)CCO4)c4cn[nH]c4n3)cc2)c1 [cisSGK3-PROTAC1] |  |  |  |  |  |  |  |  |  |  |  | failed to induce degradation of SGK3 |  |  |  |  |  |

From publication PMC6757289, “Design and Characterization of SGK3-PROTAC1, an Isoform Specific SGK3 Kinase PROTAC Degrader” (ACS Chemical Biology, 2019)
